Assay results published in patent publication WO2015077660A1, “Enzyme reactor system enabling enhanced enzymatic digestion, analyte solubility and improved mass spectrometric compatibility” (priority 2013, dated 2014).

Assays:
[1] = tested on: trypsin; experiment: Insulin digestion in immobilized enzyme reactor, buffer screening (Table 7); type: biochemical, porcine; conditions: IMER, 70°C, 60 s
[2] = tested on: T1, porcine trypsin; experiment: Insulin digestion by trypsin in solution, buffer screening (Table 9); type: biochemical; conditions: 37°C, 18 h
T1 construct: purchased

| SMILES | Digested ([1]; 5%) | Peptide ([1]; 5%) | Undigested ([1]; 5%) | Digested ([1]; 10%) | Peptide ([1]; 10%) | Undigested ([1]; 10%) | Digested ([1]; 15%) | Peptide ([1]; 15%) | Undigested ([1]; 15%) | Digested ([1]; 20%) | Peptide ([1]; 20%) | Undigested ([1]; 20%) | Digested ([2]; 5%) | Peptide ([2]; 5%) | Undigested ([2]; 5%) | Digested ([2]; 10%) | Peptide ([2]; 10%) | Undigested ([2]; 10%) | Digested ([2]; 15%) | Peptide ([2]; 15%) | further results |
| --- | --- | --- | --- | --- | --- | --- | --- | --- | --- | --- | --- | --- | --- | --- | --- | --- | --- | --- | --- | --- | --- |
| CC#N [ACN, acetonitrile] | 1344796 | 568057 | 3327305 | 719966 | 309638 | 4860471 | 292205 | 116402 | 5326017 | 194140 | 86754 | 6433237 | 1409360 | 625535 | 5143004 | 1676314 | 692364 | 4742266 | 1925305 | 779339 | Undigested ([2]; 15%): 2715010; Digested ([2]; 20%): 2507679; Peptide ([2]; 20%): 1020020; Undigested ([2]; 20%): 3445401 |
| C[S+](C)[O-] [DMSO, dimethylsulfoxide] | 1804007 | 719810 | 2280353 | 1483343 | 618353 | 2811668 | 1058609 | 437967 | 3394971 | 722730 | 296540 | 3631216 | 1193067 | 499051 | 3219771 | 1185116 | 442885 | 3803031 | 1233021 | 481657 | Undigested ([2]; 15%): 4423224; Digested ([2]; 20%): 1215388; Peptide ([2]; 20%): 467559; Undigested ([2]; 20%): 4523186 |
| O=S(=O)(O)CCN1CCN(CCO)CC1 [HEPES] | – | – | – | – | – | – | – | – | – | – | – | – | – | – | – | – | – | – | – | – | Digested ([1]; 50 mM): 2438065; Peptide ([1]; 50 mM): 1040553; Undigested ([1]; 50 mM): 1152957; Digested ([2]; 50 mM): 1758816; Peptide ([2]; 50 mM): 758959; Undigested ([2]; 50 mM): 2816170 |
| CC(C)O [IPA, isopropyl alcohol] | 696091 | 291902 | 4427643 | 208098 | 86945 | 5774155 | 126129 | 52332 | 5930073 | 135325 | 55155 | 5148164 | 1024085 | 407876 | 3528233 | 1133300 | 418703 | 3935383 | 906822 | 322103 | Undigested ([2]; 15%): 4509078; Digested ([2]; 20%): 954036; Peptide ([2]; 20%): 347874; Undigested ([2]; 20%): 4992140 |
